Experimental data published in patent US10752626B2, “Iso-citrate dehydrogenase (IDH) inhibitor” (SHANGHAI METON PHARMACEUTICAL CO., LTD, priority 2016, dated 2020).

Target: IDH1 R132C (Homo sapiens (Human), UniProt O75874, R132C)
Assay: Improved cell-based assay: D-2-HG in HT1080 cells over-expressing D-2-HG dehydrogenase
Conditions: 12 h
From the text: The present disclosure also provides a cell based method for assaying IDH inhibition and selectivity of the compounds in human fibrosacoma cell line HT1080 and cholangiocarcinoma cell line HCCC 9810, which harbor endogenous heterozygous IDH1 R132C and R132H mutation respectively and accumulate D-2-HG Tumor derived IDH mutant lost its normal activity of producing α-KG and gained a new activity of producing D-2-HG D-2-HG is a metabolite specifically elevated in IDH mutated tumor samples.
By treating HT1080 and HCCC 9810 cells with an effective IDH inhibitor, the synthesis of D-2-HG is blocked, and D-2-HG concentration is decreased by the oxidation reaction catalyzed by D-2-HG dehydrogenase.
To perform a cell based IDH inhibitor assay, HT1080 and HCCC 9810 cells (or other cell lines harboring different IDH mutations) are cultured in DMEM supplemented with 10% FBS. The cells are treated with compounds of present disclosure at various different concentration. At various time points (between 4-24 hours) after the treatment, cell culture supernatants were removed and cells were washed with PBS for one or two times. Cell metabolites are extracted by adding 80% methanol (pre-chilled under −80° C.) in the cells, extract at 4° C. temperature for 60 min, centrifuged to remove any insoluble component. Metabolites (clear supernatant from the previous step) are lyophilized and reconstituted in pyridine containing 20 mg/ml O-methoxyamineHCl and are incubated at 70° C. for 40 minutes. After cooling down to room temperature, MTBSTFA (N-tert-Butyldimethylsilyl-N-methyltrifluoroacetamide, Sigma Aldrich) is added at a volume ratio of 4:7 (e.g., 20 μL MTBSTFA to 35 μL 20 mg/ml O-methoxyamineHCl solution) and derivation is performed at 70° C. for 30 minutes. The derived metabolites including D-2-HG are analyzed by Agilent 7890A-5750 GC/MS system. […] of the derived metabolite is injected into Agilent 7890A-5750 for D-2-HG concentration analysis. GC oven temperature is programmed from 140° C. to 260° C. at 10° C./min, from 260° C. to 310° C. at 8° C./min and hold at 310° C. for 5 min. The flow rate of carrier gas is 1 ml/min. The mass spectrometer is operated in the electron impact (EI) mode at 70 eV D-2-HG is normalized to endogenous glutamate.
The activity of IDHs in the presence of each compounds at different concentrations can be represented by relative D-2-HG concentration to negative control samples, and the IC50 value, the inhibition and selectivity for each compound can be evaluated.
The present disclosure also provides an improved cell-based assay for IDH inhibition and selectivity of the compounds, which involves stably over-expressing D-2-HG dehydrogenase in HT1080 and HCCC 9810 cells.
According to previous report, over expression of D-2-HG dehydrogenase decreases the half-life of D-2-HG in HT1080 cells (FIGS. 2A and 2B) [“D-2-hydroxyglutarate is essential for maintaining oncogenic property of mutant IDH-containing cancer cells but dispensable for cell growth”, Ma, S., et al., Oncotarget, (2015)], making the cells more sensitive to D-2-HG synthesis blockage by mutant IDH1 inhibitors. It will greatly increase the sensitivity and accurateness of this cell based assay. In the improved cell-based assay, all other steps are performed as disclosed in Test 6.
The D-2-HG inhibition activity of compounds was also assessed in the improved cell-based assay according to the method disclosed in Test 7 of the Biological evaluation section. HT1080 cells over-expressing D-2-HG dehydrogenase were cultured in 35 mm plate and treated with each of Compounds 1-37 at a concentration of 0.5 μM, 1 μM, 2.5 μM and 5 μM for 12 h, respectively, and the D-2-HG concentration was analysed. The inhibition ratio of D-2-HG in HT1080 cell by the exemplary Compounds 16, 21-24 and 31 at different concentrations were shown in Table 10.

Sequence of IDH1 R132C (O75874 2-414 R132C): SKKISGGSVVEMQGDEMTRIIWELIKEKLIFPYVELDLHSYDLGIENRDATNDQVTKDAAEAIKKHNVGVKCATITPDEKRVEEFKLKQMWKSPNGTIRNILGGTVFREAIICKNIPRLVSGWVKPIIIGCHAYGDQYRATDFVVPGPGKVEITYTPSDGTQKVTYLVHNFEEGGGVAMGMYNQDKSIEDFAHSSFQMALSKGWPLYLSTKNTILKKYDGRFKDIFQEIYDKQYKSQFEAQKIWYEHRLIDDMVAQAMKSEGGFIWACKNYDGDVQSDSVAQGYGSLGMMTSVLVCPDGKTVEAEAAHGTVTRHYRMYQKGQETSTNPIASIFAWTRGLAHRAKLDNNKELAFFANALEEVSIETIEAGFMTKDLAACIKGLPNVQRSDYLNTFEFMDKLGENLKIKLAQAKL

Row | SMILES | Inhibition ratio of D-2-HG in HT1080 cell (0.5 μM) | Inhibition ratio of D-2-HG in HT1080 cell (1 μM) | Inhibition ratio of D-2-HG in HT1080 cell (2.5 μM) | Inhibition ratio of D-2-HG in HT1080 cell (5 μM)
1 | CCN1Cc2c(ccnc2N[C@@H](C)c2ccc(Oc3ccc(C)cc3)cc2)C1=O [Compound 16, (S)-2-ethyl-4-(1-(4-(p-tolyloxy)phenyl)ethylamino)-2,3-dihydro-1H-pyrrolo [3,4-c]pyridin-1-one] | 51% | 60.2% | 67% | 82.2%
2 | CCN1Cc2c(ccnc2N[C@@H](C)c2ccc(Oc3ccccc3)c(F)c2)C1=O [Compound 23, (S)-2-ethyl-4-((1-(3-fluoro-4-phenoxyphenyl)ethyl)amino)-2,3-dihydro-1H-pyrrolo[3,4-c]pyridin-1-one] | 12.5% | 30.7% | 68.3% | 76.7%
